Data as given in patent US9290457B2, “Substituted dihydropyrimidinones and their use as inhibitors of neutrophil elastase activity” (Boehringer Ingelheim International GmbH, priority 2014, dated 2016).

target: neutrophil elastase (Homo sapiens (Human), UniProt P08246); test: Human Neutrophil Elastase Assay; assay type: biochemical; details: substrate MeOSuc-Ala-Ala-Pro-Val-AMC
Protocol: Human Neutrophil Elastase Assay
All other materials were of the highest grade commercially available.
The following buffers were used: Compound buffer: 100 mM Tris, 500 mM NaCl, adjusted to pH 7.5; Assay buffer: 100 mM Tris, 500 mM NaCl, adjusted to pH 7.5, containing 0.01% BSA.
Assay conditions: Test compounds were prediluted in DMSO and subsequently in compound buffer (5% DMSO final). […] After inactivation of the enzyme, fluorescence intensities were measured at 380 nm excitation and 460 nm emission wavelengths.
Each plate contains wells with a high value control (DMSO+enzyme+substrate) and wells with a low value control (DMSO+inactivated enzyme+substrate). IC50 values were estimated using a sigmoidal concentration response curve with variable slope. Means of low values were taken as 0%, means of high values as 100%.

Sequence of neutrophil elastase (P08246 30-247): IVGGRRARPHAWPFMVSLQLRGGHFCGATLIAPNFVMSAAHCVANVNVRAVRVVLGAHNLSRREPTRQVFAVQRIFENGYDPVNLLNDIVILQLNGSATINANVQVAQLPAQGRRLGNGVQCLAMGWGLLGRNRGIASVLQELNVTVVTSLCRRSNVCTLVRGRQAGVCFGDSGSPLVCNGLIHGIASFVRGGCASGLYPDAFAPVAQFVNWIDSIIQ

Row | Structure (SMILES) | IC50
1 | CC(=O)C1=C(C)N(c2cccc(C(F)(F)F)c2)C(=O)N(C)C1c1ccc(C#N)cc1C(=O)N1Cc2ccncc2C1 (centres unmarked) [Example 1.66] | 1.7 nM
2 | CC(=O)C1=C(C)N(c2cccc(C(F)(F)F)c2)C(=O)N(C)C1c1ccc(C#N)cc1C(=O)NCc1ccc(C#N)o1 (centres unmarked) [Example 1.67] | 1.3 nM
3 | CC(=O)C1=C(C)N(c2cccc(C(F)(F)F)c2)C(=O)N(C)C1c1ccc(C#N)cc1C(=O)N(C)Cc1ccncc1 (centres unmarked) [Example 1.68] | < 1 nM
4 | CC(=O)C1=C(C)N(c2cccc(C(F)(F)F)c2)C(=O)N(C)C1c1ccc(C#N)cc1C(=O)N1CCn2cncc2C1 (centres unmarked) [Example 1.69] | < 1 nM
5 | CC(=O)C1=C(C)N(c2cccc(C(F)(F)F)c2)C(=O)N(C)C1c1ccc(C#N)cc1C(=O)N1CCn2ccnc2C1 (centres unmarked) [Example 1.70] | < 1 nM
6 | CC(=O)C1=C(C)N(c2cccc(C(F)(F)F)c2)C(=O)N(C)C1c1ccc(C#N)cc1C(=O)N1Cc2cnn(C)c2C1 (centres unmarked) [Example 1.71] | < 1 nM
7 | CC(=O)C1=C(C)N(c2cccc(C(F)(F)F)c2)C(=O)N(C)C1c1ccc(C#N)cc1C(=O)N1CCc2nocc2C1 (centres unmarked) [Example 1.72] | 2.8 nM
8 | CC(=O)C1=C(C)N(c2cccc(C(F)(F)F)c2)C(=O)N(C)C1c1ccc(C#N)cc1C(=O)N1CCn2cnnc2C1 (centres unmarked) [Example 1.74] | < 1 nM
9 | CC(=O)C1=C(C)N(c2cccc(C(F)(F)F)c2)C(=O)N(C)C1c1ccc(C#N)cc1C(=O)N(C)Cc1nccn1C (centres unmarked) [Example 1.75] | < 1 nM
10 | CC(=O)C1=C(C)N(c2cccc(C(F)(F)F)c2)C(=O)N(C)C1c1ccc(C#N)cc1C(=O)N(C)Cc1ccnn1C (centres unmarked) [Example 1.76] | < 1 nM
11 | CC(=O)C1=C(C)N(c2cccc(C(F)(F)F)c2)C(=O)N(C)C1c1ccc(C#N)cc1C(=O)N(C)Cc1ccn(C)n1 (centres unmarked) [Example 1.78] | < 1 nM
12 | CC(=O)C1=C(C)N(c2cccc(C(F)(F)F)c2)C(=O)N(C)C1c1ccc(C#N)cc1C(=O)N(C)Cc1nncn1C (centres unmarked) [Example 1.79] | < 1 nM
13 | CC(=O)C1=C(C)N(c2cccc(C(F)(F)F)c2)C(=O)N(C)C1c1ccc(C#N)cc1C(=O)N1CCN2CCCC2C1 (centres unmarked) [Example 1.80] | 6.3 nM
14 | CC(=O)C1=C(C)N(c2cccc(C(F)(F)F)c2)C(=O)N(C)C1c1ccc(C#N)cc1C(=O)N1CCN(C2CC2)CC1 (centres unmarked) [Example 1.81] | 8.8 nM
15 | CC(=O)C1=C(C)N(c2cccc(C(F)(F)F)c2)C(=O)N(C)C1c1ccc(C#N)cc1C(=O)N1CCN(C(C)C)CC1 (centres unmarked) [Example 1.82] | 2.7 nM
16 | CC(=O)C1=C(C)N(c2cccc(C(F)(F)F)c2)C(=O)N(C)C1c1ccc(C#N)cc1C(=O)NC1CCN(C(C)C)C1 (centres unmarked) [Example 1.83] | 1.2 nM
17 | CC(=O)C1=C(C)N(c2cccc(C(F)(F)F)c2)C(=O)N(C)C1c1ccc(C#N)cc1C(=O)NCCN(C)C (centres unmarked) [Example 1.84] | < 1 nM
18 | CCOC(=O)C1=C(C)N(c2cccc(C(F)(F)F)c2)C(=O)N(C)C1c1ccc(C#N)cc1C(=O)N(C)C (centres unmarked) [Example 3, 4-(4-Cyano-2-dimethylcarbamoyl-phenyl)-3,6-dimethyl-2-oxo-1-(3-trifluoromethyl-phenyl)-1,2,3,4-tetrahydro-pyrimidine-5-carboxylic acid ethyl ester] | < 1 nM

The remaining lines, values ahead:

Row | IC50 | Structure (SMILES)
19 | < 1 nM | CC(=O)C1=C(C)N(c2cccc(C(F)(F)F)c2)C(=O)N(C)C1c1ccc(C#N)cc1C(=O)N1CC[C@@H](N)C1 (some centres unmarked) [Example 2.10]
20 | < 1 nM | CC(=O)C1=C(C)N(c2cccc(C(F)(F)F)c2)C(=O)N(C)C1c1ccc(C#N)cc1C(=O)N1CC[C@H](N)C1 (some centres unmarked) [Example 2.11]
21 | < 1 nM | CNCCN(C)C(=O)c1cc(C#N)ccc1C1C(C(C)=O)=C(C)N(c2cccc(C(F)(F)F)c2)C(=O)N1C (centres unmarked) [Example 2.12]
22 | < 1 nM | CC(=O)C1=C(C)N(c2cccc(C(F)(F)F)c2)C(=O)N(C)C1c1ccc(C#N)cc1C(=O)NCC(C)(C)N (centres unmarked) [Example 2.13]
23 | 5.4 nM | CC(=O)C1=C(C)N(c2cccc(C(F)(F)F)c2)C(=O)N(C)C1c1ccc(C#N)cc1C(=O)N1CC2CC1CN2 (centres unmarked) [Example 2.14]
24 | 4.5 nM | CC(=O)C1=C(C)N(c2cccc(C(F)(F)F)c2)C(=O)N(C)C1c1ccc(C#N)cc1C(=O)N1CCNC(C)C1 (centres unmarked) [Example 2.15]
25 | 1.2 nM | CN[C@H]1CCN(C(=O)c2cc(C#N)ccc2C2C(C(C)=O)=C(C)N(c3cccc(C(F)(F)F)c3)C(=O)N2C)C1 (some centres unmarked) [Example 2.16]
26 | < 1 nM | CCOC(=O)C1=C(C)N(c2cccc(C(F)(F)F)c2)C(=O)N(C)C1c1ccc(C#N)cc1C(=O)NC1(C#N)CC1 (centres unmarked) [Example 3.1]
27 | 3 nM | CCOC(=O)C1=C(C)N(c2cccc(C(F)(F)F)c2)C(=O)N(C)C1c1ccc(C#N)cc1C(=O)N1CCN(CC)CC1 (centres unmarked) [Example 3.2]
28 | 3 nM | CCOC(=O)C1=C(C)N(c2cccc(C(F)(F)F)c2)C(=O)N(C)C1c1ccc(C#N)cc1C(N)=O (centres unmarked) [Example 3.3]
29 | 3 nM | CCOC(=O)C1=C(C)N(c2cccc(C(F)(F)F)c2)C(=O)N(C)C1c1ccc(C#N)cc1C(=O)NC (centres unmarked) [Example 3.4]
30 | 3 nM | CCNC(=O)c1cc(C#N)ccc1C1C(C(=O)OCC)=C(C)N(c2cccc(C(F)(F)F)c2)C(=O)N1C (centres unmarked) [Example 3.5]
31 | 3 nM | C#CCNC(=O)c1cc(C#N)ccc1C1C(C(=O)OCC)=C(C)N(c2cccc(C(F)(F)F)c2)C(=O)N1C (centres unmarked) [Example 3.6]
32 | 3 nM | CCOC(=O)C1=C(C)N(c2cccc(C(F)(F)F)c2)C(=O)N(C)C1c1ccc(C#N)cc1C(=O)NCC#N (centres unmarked) [Example 3.7]
33 | 3 nM | CCOC(=O)C1=C(C)N(c2cccc(C(F)(F)F)c2)C(=O)N(C)C1c1ccc(C#N)cc1C(=O)NC1CC1 (centres unmarked) [Example 3.8]
34 | 3 nM | CCOC(=O)C1=C(C)N(c2cccc(C(F)(F)F)c2)C(=O)N(C)C1c1ccc(C#N)cc1C(=O)N1CCC1 (centres unmarked) [Example 3.9]
35 | 3 nM | CCOC(=O)C1=C(C)N(c2cccc(C(F)(F)F)c2)C(=O)N(C)C1c1ccc(C#N)cc1C(=O)NCCO (centres unmarked) [Example 3.10]
36 | < 1 nM | CCOC(=O)C1=C(C)N(c2cccc(C(F)(F)F)c2)C(=O)N(C)C1c1ccc(C#N)cc1C(=O)NCCF (centres unmarked) [Example 3.11]
37 | < 1 nM | CCOC(=O)C1=C(C)N(c2cccc(C(F)(F)F)c2)C(=O)N(C)C1c1ccc(C#N)cc1C(=O)N1CCCC1 (centres unmarked) [Example 3.12]
38 | < 1 nM | CCOC(=O)C1=C(C)N(c2cccc(C(F)(F)F)c2)C(=O)N(C)C1c1ccc(C#N)cc1C(=O)N1CC(O)C1 (centres unmarked) [Example 3.13]
39 | < 1 nM | CCOC(=O)C1=C(C)N(c2cccc(C(F)(F)F)c2)C(=O)N(C)C1c1ccc(C#N)cc1C(=O)NC1COC1 (centres unmarked) [Example 3.14]

Row | IC50 | Structure (SMILES)
40 | < 1 nM | CCOC(=O)C1=C(C)N(c2cccc(C(F)(F)F)c2)C(=O)N(C)C1c1ccc(C#N)cc1C(=O)NCC(F)F (centres unmarked) [Example 3.18]
41 | < 1 nM | CCOC(=O)C1=C(C)N(c2cccc(C(F)(F)F)c2)C(=O)N(C)C1c1ccc(C#N)cc1C(=O)NC12CCC1C2 (centres unmarked) [Example 3.19]
42 | 1.4 nM | CCOC(=O)C1=C(C)N(c2cccc(C(F)(F)F)c2)C(=O)N(C)C1c1ccc(C#N)cc1C(=O)NC1CCOC1 (centres unmarked) [Example 3.21]
43 | 2 nM | CCOC(=O)C1=C(C)N(c2cccc(C(F)(F)F)c2)C(=O)N(C)C1c1ccc(C#N)cc1C(=O)N1CCOCC1 (centres unmarked) [Example 3.22]
44 | 1.3 nM | CCOC(=O)C1=C(C)N(c2cccc(C(F)(F)F)c2)C(=O)N(C)C1c1ccc(C#N)cc1C(=O)NCC(C)(C)O (centres unmarked) [Example 3.23]
45 | 1 nM | CCOC(=O)C1=C(C)N(c2cccc(C(F)(F)F)c2)C(=O)N(C)C1c1ccc(C#N)cc1C(=O)N(C)CCOC (centres unmarked) [Example 3.24]
46 | 1.2 nM | CCOC(=O)C1=C(C)N(c2cccc(C(F)(F)F)c2)C(=O)N(C)C1c1ccc(C#N)cc1C(=O)NCCCOC (centres unmarked) [Example 3.25]
47 | 1.6 nM | CCOC(=O)C1=C(C)N(c2cccc(C(F)(F)F)c2)C(=O)N(C)C1c1ccc(C#N)cc1C(=O)NCC(F)(F)F (centres unmarked) [Example 3.26]
48 | 2.2 nM | CCOC(=O)C1=C(C)N(c2cccc(C(F)(F)F)c2)C(=O)N(C)C1c1ccc(C#N)cc1C(=O)N1CCC(O)CC1 (centres unmarked) [Example 3.27]
49 | 1.3 nM | CCOC(=O)C1=C(C)N(c2cccc(C(F)(F)F)c2)C(=O)N(C)C1c1ccc(C#N)cc1C(=O)NC1CCC(O)C1 (centres unmarked) [Example 3.28]
50 | 1.4 nM | CCOC(=O)C1=C(C)N(c2cccc(C(F)(F)F)c2)C(=O)N(C)C1c1ccc(C#N)cc1C(=O)NC1CCOCC1 (centres unmarked) [Example 3.29]
51 | 1.1 nM | CCOC(=O)C1=C(C)N(c2cccc(C(F)(F)F)c2)C(=O)N(C)C1c1ccc(C#N)cc1C(=O)N(C)CCCOC (centres unmarked) [Example 3.30]
52 | 1 nM | CCOC(=O)C1=C(C)N(c2cccc(C(F)(F)F)c2)C(=O)N(C)C1c1ccc(C#N)cc1C(=O)NC1CCN(C)CC1 (centres unmarked) [Example 3.31]
53 | 1.1 nM | CCOC(=O)C1=C(C)N(c2cccc(C(F)(F)F)c2)C(=O)N(C)C1c1ccc(C#N)cc1C(=O)NCCS(C)(=O)=O (centres unmarked) [Example 3.32]
54 | < 1 nM | CCOC(=O)C1=C(C)N(c2cccc(C(F)(F)F)c2)C(=O)N(C)C1c1ccc(C#N)cc1C(=O)N(C)Cc1cnn(C)c1 (centres unmarked) [Example 3.33]
55 | 1 nM | CCOC(=O)C1=C(C)N(c2cccc(C(F)(F)F)c2)C(=O)N(C)C1c1ccc(C#N)cc1C(=O)NC1CCS(=O)(=O)C1 (centres unmarked) [Example 3.34]
56 | < 1 nM | CCOC(=O)C1=C(C)N(c2cccc(C(F)(F)F)c2)C(=O)N(C)C1c1ccc(C#N)cc1C(=O)NCCN(C)C (centres unmarked) [Example 3.35]
57 | < 1 nM | CCOC(=O)C1=C(C)N(c2cccc(C(F)(F)F)c2)C(=O)N(C)C1c1ccc(C#N)cc1C(=O)N(C)CCN(C)C (centres unmarked) [Example 3.36]
58 | 2.8 nM | CCOC(=O)C1=C(C)N(c2cccc(C(F)(F)F)c2)C(=O)N(C)C1c1ccc(C#N)cc1C(=O)N1CC[C@@H](N(C)C)C1 (some centres unmarked) [Example 3.37]
59 | 1 nM | CCOC(=O)C1=C(C)N(c2cccc(C(F)(F)F)c2)C(=O)N(C)C1c1ccc(C#N)cc1C(=O)N1CC[C@H](N(C)C)C1 (some centres unmarked) [Example 3.38]
